Laboratory results from patent publication US9115085B2, “Crystalline forms of a prolyl hydroxylase inhibitor” (FibroGen, Inc., priority 2012, dated 2015).
Values belong to the compound of their own block, whether it stands above or below them.

Legend:
[1] = Solid form stability on storage (XRPD); type: physicochemical; settings: for XRPD pattern / form after storage: 40° C./75% RH
Description: X-Ray Powder Diffraction patterns were collected on a Bruker AXS C2 GADDS diffractometer using Cu Kα radiation (40 kV, 40 mA), automated XYZ stage, laser video microscope for auto-sample positioning and a HiStar 2-dimensional area detector. X-ray optics consists of a single Gobel multilayer mirror coupled with a pinhole collimator of 0.3 mm. […] Alternatively, X-Ray Powder Diffraction patterns were collected on a Bruker D8 diffractometer using Cu Kα radiation (40 kV, 40 mA), θ-2θ goniometer, and divergence of V4 and receiving slits, a Ge monochromator and a Lynxeye detector. […] The software used for data collection was Diffrac Plus XRD Commander v2.5.0 and the data were analyzed and presented using Diffrac Plus EVA v11.0.0.2 or v13.0.0.2. Samples were run under ambient conditions as flat plate specimens using powder as received. The sample was gently packed into a cavity cut into polished, zero-background (510) silicon wafer. The sample was rotated in its own plane during analysis. The details of the data collection are: • Angular range: 2 to 42°2θ • Step size: 0.05°2θ • Collection time: 0.5 s/step • Analysis duration: 7 minutes Differential Scanning Calorimetry (DSC)

Hep3B cells = assay: Cell-based EPO assay; parameters: species or system human; settings: 30 μM compound in DMSO compared to DMSO only control, 72 hours
Experimental: Hep3B cells (human hepatocellular carcinoma cells from ATCC, cat #HB-8064) were plated at 25,000 cells per well 96 well plates. The next day, the cells were washed once with DMEM (Cellgro, cat #10-013-CM)+0.5% fetal bovine serum (Cellgro, cat #35-010-CV) and incubated with various concentrations of compound or vehicle control (0.15% DMSO) in DMEM+0.5% fetal bovine serum for 72 hours. Cell free culture supernatants were generated by transfer to a conical bottom 96 well plate and centrifugation for 5 minutes at 2000 rpm. The supernatant was quantitated for EPO using a human EPO ELISA kit (R&D Systems, cat #DEP 00). The EPO values for the compounds reported herein (e.g., Table 22) are the measured value for cells plus compound minus the value for the vehicle control for the same cell preparation. The EPO values for the vehicle control for the cell preparations varied from 0-12.5 mIU/mL.

Moisture sorption = type: physicochemical; settings: from 5% to 95% relative humidity; lost on desorption

XRPD pattern / form after storage [1]: Pattern 3
Compound: Cc1nc(C(=O)NCC(=O)O)c(O)c2ccc(Oc3ccccc3)cc12.NCCO [Compound A ethanolamine salt, [(4-hydroxy-1-methyl-7-phenoxy-isoquinoline-3-carbonyl)-amino]-acetic acid ethanolamine salt]

Compound: [(4-hydroxy-1-methyl-7-phenoxy-isoquinoline-3-carbonyl)-amino]-acetic acid diethanolamine salt [Compound A diethanolamine salt]
XRPD pattern / form after storage [1]: Pattern 2

moisture sorption weight gain (Moisture sorption): approximately 0.2%
relative stability of crystalline forms ([1]; among Form B, C, and D of Compound A): most stable crystalline form
Compound: Cc1nc(C(=O)NCC(=O)O)c(O)c2ccc(Oc3ccccc3)cc12 [Compound A Form A, [(4-hydroxy-1-methyl-7-phenoxy-isoquinoline-3-carbonyl)-amino]-acetic acid]
Cell EPO (Hep3B cells): 182 mIU/mL

Compound: [(4-hydroxy-1-methyl-7-phenoxy-isoquinoline-3-carbonyl)-amino]-acetic acid hemihydrate [Compound A Form B]
form conversion on storage ([1]; ambient temperature, full month (32 days), high resolution XRPD): almost completely reverted to anhydrous Form A
crystalline pattern change on storage ([1]; stored at 25° C./96% RH for twelve days): reverting to Form A

form conversion ([1]; left drying at ambient temperature): converted to Form A
Compound: Cc1nc(C(=O)NCC(=O)O)c(O)c2ccc(Oc3ccccc3)cc12 [Compound A Form D, [(4-hydroxy-1-methyl-7-phenoxy-isoquinoline-3-carbonyl)-amino]-acetic acid DMSO:water solvate]
